Reference: US11708373B2, “5-alkylquinazoline derivative, method of preparing the same, and method of using the same” (Hefei University of Technology, priority 2020, dated 2023)

Test system: breast cancer cells (MCF)
Assay: MCF test of breast cancer cells
Type: cell-based
From the text: Therefore, the compounds of the present application are expected to be useful in the treatment of various cancers, such as cervical cancer.

COC(=O)C1=NC2(Nc3ccc(C)cc31)C(=O)Nc1ccc(C)cc12 (stereo not shown) [Compound II]
ED50, inhibitory activity in the MCF test of breast cancer cells: < 10.0 µg/mL
